Reference: a melting point compilation (Tetko et al.; mined from patent text by program, amines drawn as free bases though some values may be those of a salt)

SMILES	melting point
Oc1cccc(-c2nn(C3CCCC3)c3c(Cl)cccc23)c1F	150 to 151 °C
COC(=O)c1nc(-c2ccc(Cl)c(N(C)C)c2F)nc(N)c1C1CC1	156 to 158 °C
Nc1c([N+](=O)[O-])cnn1-c1ncc(Cl)cc1Cl	194 °C
CC(=O)N[C@@H](CSC(=O)C(C)C)C(=O)NCCSC(=O)C(C)C	99 to 100 °C
NC(=C[N+](=O)[O-])N1CCCC1	120 to 125 °C
Cc1cc(C(N)=O)ncc1C(c1c(F)ccc(F)c1F)S(=O)(=O)CCC(F)(F)C(F)(F)F (configuration not stated)	155 to 156 °C
Cc1ccn2cc(CS)nc2c1	164 to 168 °C
CC1(C)C(=O)Nc2ccc([N+](=O)[O-])cc21	192 to 196 °C
NC(=O)c1cc(Cl)c(N[C@H]2CC[C@H](N)CC2)cc1F	160 to 162 °C
CC(=O)Oc1cccc2c1C13CCN(C)C(C2)C1CCC(=O)C3 (single isomer, unassigned; (-))	96 to 97 °C
CCCCCS(=O)(=O)NC(=O)CCCCc1cc(OCCCC)nn1Cc1ccc(Cl)cc1Cl	91 to 93 °C
Cc1nnc2n1-c1ccc(C#CCN3Cc4ccccc4C3=O)cc1C(c1ccccc1F)=NC2	165 to 168 °C
Cc1nn(C)c2c1N(C(=O)CN(C(C)C)C(C)C)c1ccccc1NC2=O	154 to 156 °C
Nc1cc(=O)n(Cc2ccc(F)cc2)[nH]1	148 °C
COc1ccc(-c2cnc3cc4cn[nH]c4cc3n2)cc1F	175 to 179 °C
CN(C[C@H](O)[C@@H](O)[C@H](O)[C@H](O)CO)C(=O)c1ccc2n1Cc1ccccc1N(C(=O)c1ccc(-c3cccc4ccccc34)nc1)C2	165 to 167 °C
CSCOC1CCC2C3CCC4=CC(=O)C=CC4(C)C3(F)C(OC(C)=O)CC12C (configuration not stated)	142 to 143 °C
Cc1cc(Oc2ccc([N+](=O)[O-])c(C(F)(F)F)c2)n[nH]1	96 to 98 °C
COc1cccc2c1C(N)=NS2(=O)=O	270 °C
Nc1nc(-c2cccc3ccc(Br)cc23)co1	189 to 190 °C
Cc1c(CC(=O)O)oc2ccc(Cl)cc12	149 to 150 °C
CC(=O)Nc1c([N+](=O)[O-])cc(C)c(OC(F)F)c1C	184 to 185 °C
CCCc1c[nH]c2cc(CO)ccc12	68 to 71 °C

SMILES	melting point
c1ccc(CSc2ncccc2C2=NOCC2)cc1	97 to 98 °C
CN1C(c2ccc(N3CCCCC3)cc2)=NC(C(F)(F)F)(C(F)(F)F)C1NC(=O)c1ccc(F)cc1 (configuration not stated)	123 to 124 °C
CSc1nc(N)c2ncn(COCCO)c2n1	174 to 176 °C
CN(C)[C@@H]1Cc2cccc(O)c2C[C@H]1O (relative stereo)	168 to 170 °C
CCC1(Cl)C(=O)c2c(cc(OCC(=O)O)c(Cl)c2Cl)C1c1ccccc1 (configuration not stated)	190 to 192 °C
CCC1(CC)C(=O)N(C(C)(C)C)CC(C)(C)N1OC(C)(C)C#N	68 to 71 °C
CCCCCCCCCCc1ccc(CCC(N)(CO)CCO)cc1 (configuration not stated)	69 to 72 °C
CCOCc1nc2c(N)nc3cc(OCCN4CCOCC4)ccc3c2n1CC(C)(C)O	161 to 163 °C
O=C(O)C(CC(=O)N1CCOCC1)Oc1ccccc1 (configuration not stated)	150 to 151 °C
CCONC(=O)NNC(=O)CC	122 °C
CC(=O)Oc1ccccc1C(=O)Oc1nc[nH]c1C(N)=O	143 to 145 °C
N[C@@H](CCCCN=Cc1ccccc1)C(=O)O	79 to 81 °C
Clc1cnc(Oc2cccc(Oc3ncc(Cl)cn3)c2)nc1	120 °C
COC(=O)/C=C/c1ccc(C)cc1Br	70 °C
N#Cc1ccc(CC23CCCN2C(=O)N(c2cc(Cl)cc(-n4cccc4)c2)C3=O)cc1 (configuration not stated)	266 °C
CC(Oc1cc2sc(NC(=O)NCCN3CCOCC3)nc2cc1F)c1c(Cl)cccc1Cl (configuration not stated)	200 to 205 °C
COC(=O)c1cncn1C1CC2CCCCC2c2ccccc21 (configuration not stated)	140 °C
CCN1CCC2(CC1)COc1cc3c(cc12)N(C(=O)c1ccc(-c2ccc(C(=O)NNC(C)=O)cc2C)cc1)CC3	154 to 157 °C
CC12CCC3C(CC=C4CC(F)CCC43C)C1CCC2=O (configuration not stated)	155 to 156 °C
CCc1nn(CC(N)=O)c(CC)c1Oc1cccc(C#N)c1	159 to 160 °C
Cc1cc2cc(C#N)c(=O)[nH]c2cc1C	300 °C
Cc1cnc2c(c1)cc1c3c(cc([N+](=O)[O-])cc32)C(=O)OC1=O	261 to 262 °C
O=C(Nc1ccc(N2CCC(NC[C@H](O)COc3cccc4[nH]c5ccccc5c34)CC2)cc1)c1ccc2c(c1)OCO2	217 to 223 °C

SMILES	melting point
CC(C)(C)c1cc(N2CCCC2=O)cc(C(C)(C)C)c1O	173 to 175 °C
CCCCN(CC1Cc2cc(Cl)cc(Cl)c2O1)C(=O)n1ccnc1 (configuration not stated)	98 to 100 °C
CC(=O)NCCn1c(O)nc2ccc(Cl)nc21	200 to 220 °C
COc1cc(CC#N)c(OC)c(C)c1C	98 to 99 °C
O=C(Nc1ccc(OC(F)(F)F)cc1)NC1CCN(C(=O)CN2CCNCC2)CC1	111 to 122 °C
Oc1ccc(-c2ncc3ncc(Cl)cc3n2)cc1	231 to 232 °C
CS(=O)c1ccc(-c2nn(CC3CC3)c(=O)cc2-c2ccc(Cl)cc2)cc1 (configuration not stated)	152 °C
O=c1cc(-c2ccc([N+](=O)[O-])cc2)oc2ncccc12	261 to 263 °C
CC(=O)c1ccc(Br)c(S(=O)(=O)Cl)c1	107 °C
CN1CC(CN)Oc2c(-c3ccc(Cl)cc3Cl)cccc21 (configuration not stated)	90 °C
CC(C)c1cccc(C(C)C)c1NS(=O)(=O)CC(=O)O	153 to 155 °C
OCc1cccc2nc(N3CCCCC3)sc12	107 to 108 °C
COC(=O)CCCCCSC1=CCCC1=O	45 to 46.5 °C
CC(C)c1nc2[nH]c(=O)[nH]c(=O)c2c(-c2ccc(F)cc2)c1/C=C/C=O	255 °C
O=C1CCCCCCCCC=CCCCCCCCCC1O (configuration not stated)	66 to 67 °C
CC(C)OCC1(C(F)(F)F)c2cc(C#N)ccc2Nc2ncc(C#N)cc21 (configuration not stated)	226 to 227 °C
CCc1c(C(=O)c2cc(C)cc(C)c2)n(CC=CC(=O)OC)c(=O)[nH]c1=O	201 to 202 °C
CCOC(=O)c1cc(Cl)c(-n2nc(CC)c(C#N)c2N)c(Cl)c1	173 to 175 °C
CCOC(=O)c1nc(N)sc1-c1cn2ccc(C)cc2n1	278 to 280 °C
c1ccc(-c2ncnc3sc4c(c23)CCCC4)cc1	135 to 137 °C
O=C1NCCN(N=Cc2ccccc2)C1=O	231 to 234 °C

Results, then the molecule that gave them:

melting point	SMILES
125 °C	COC(=O)C(c1ccccc1)C1CCN(c2ccc(N)cc2)CC1 (configuration not stated)
158 to 160 °C	COc1ccc(S(=O)(=O)Nc2cccc3c2Nc2ccccc2S3)cc1
90 °C	COC(=O)CCCc1cc2nc(Cl)ccc2n1S(=O)(=O)c1cccc(OC)c1
312 to 314 °C	O=C(O)c1ccc(C(=O)O)c(-c2nc3ccccc3[nH]2)c1
183 to 186 °C	Cc1cc(C)c(C)c(COc2ccc(-c3ccoc3C(=O)NNC(=O)c3ccc(O)c(C#N)c3)cc2)c1C
140 to 143 °C	CC(=O)SCC(C(=O)N[C@@H](Cc1c[nH]c2ccccc12)C(=O)O)C(F)(F)F (some centres not stated)
96 to 98 °C	CCN(CC)CCNc1nc2ccccc2n(-c2ccc(Cl)cc2)c1=O
130 °C	CCCCC(C(=O)NO)S(=O)(=O)c1ccc(OC)cc1 (configuration not stated)
134 °C	CC(COc1cccc(=O)n1O)CC(C)(C)C (configuration not stated)
219 to 220 °C	O=C(O)C(Cc1ccccc1)NCc1ccccc1 (configuration not stated)
190 to 191 °C	O=C(N[C@H](Cc1ccccc1)C(=O)O)OCc1ccc2nc(-c3ccccc3)ccc2c1
105 to 109 °C	CCc1cccc(C)c1CNc1ccnc2c1nc(C)n2C
56 to 58 °C	CCOC(=O)C1=C(C)N(C(=O)OCC)C(C)=C(C(=O)OCC)C1c1ccccc1C(F)(F)F
147 to 149 °C	COC1(OC)C(NC(=O)c2ccccc2O)=CC(=O)C2OC21 (configuration not stated)
174 to 178 °C	CC1(C)Oc2cc(C#N)sc2[C@@H](N2CCCCC2=O)[C@@H]1OCc1ccccc1 (relative stereo)
124 to 126 °C	COc1cc(OC)nc(C(=O)c2nccc(-c3ccccc3)c2C(=O)OCc2ccccc2)n1
150 °C	Cc1ccc(-n2nc(C(C)(C)C)cc2NC(=O)NCc2ccccc2Oc2ccnc(N3CCN(C)CC3)n2)cc1
119 to 121 °C	CC(CNC(=O)c1ccc(-c2ccc(Cl)cc2)cc1F)c1ccc(CN2CCCC2)cc1 (configuration not stated)

melting point	SMILES
98 to 100 °C	COc1cc(Cn2cccc3ncnc2-3)ccc1C(=O)N(C(C)C)C1CCCCC1
189 to 191 °C	Oc1ccc(Cc2nc(-c3cccs3)c[nH]2)cc1
159 to 161 °C	COc1ccc(C2CC(=O)N(c3ccnc(NC(=O)NCc4ccccn4)c3)C2)cc1 (configuration not stated)
218 to 220 °C	O=C(NCC1CC1)Nc1ccc(N2CCOCC2)cc1C(=O)NCC1CCN(C(c2ccccc2)c2ccccc2)CC1
117 °C	O=C(c1cccc(Cl)c1)c1cccc(Cl)c1
156 to 158 °C	CC(Oc1ccc(Oc2cnc3cc(Cl)ccc3n2)cc1)C(=O)Nc1ccc(OC(F)(F)F)cc1 (configuration not stated)
78 to 79 °C	CC(C)C[C@@H](COCC(N)=O)NC(=O)OCc1ccccc1
202 to 205 °C	COc1ccc(C(=O)Nc2c(C)c(C)c3c(c2C)C(c2ccc(C(C)C)cc2)C(C)(C)O3)cc1 (configuration not stated)
79 to 80 °C	O=C(O)Cc1ccccc1OCCC(c1ccccc1)(c1ccccc1)c1ccccc1
115 to 122 °C	CC(C)(C)NC(=O)[C@@H]1C[C@H](Cl)CN1C(=O)[C@@H](O)[C@H](Cc1ccccc1)NC(=O)[C@H](CCS(N)(=O)=O)NC(=O)OCc1ccccc1
> 310 °C	O=c1[nH]c2sc(-c3ccccc3)nc2c2ccccc12
124 to 127 °C	Cc1ccc(-c2ccc(CCCCC(=O)O)s2)cc1
216 to 218 °C	CN(Cc1cccc2c1CN(C1CCC(=O)NC1=O)C2=O)C(=O)NC(C)(C)C (configuration not stated)
173 to 174 °C	CN(C)C(=O)Nc1ccc(Oc2ccc(Cl)nn2)cc1
113 to 114 °C	COC(=O)NC(CCc1ccc(Cl)cc1)C(=O)O (configuration not stated)
119 to 120 °C	Cc1oc(-c2ccccc2)nc1C(=O)COc1ccc(CCC2OCCO2)cc1
174 °C	COc1ccc(CC(=O)NC(NC(=NC#N)Nc2ccccc2C)C(C)(C)C)cc1 (configuration not stated)
